Test results published in patent US20120171144A1, “METHODS OF TREATING, REDUCING AND INHIBITING THE APPEARANCE OF AGEING IN THE SKIN” (priority 2006, published 2012).

How the values were obtained:
skin elastin = assay: 3H-elastin cleavage assay, skin elastin; format: biochemical
Experimental: (§1) FIG. 2: granzyme B degrades elastin in vitro. Granzyme B was incubated with ^3H-elastin for 7 days at room temperature. Elastase was incubated with ^3H-elastin for 2 hours. Supernatants containing the soluble elastin cleavage fragments were collected and counted. Data is represented as fold increase in radioactivity over the control (elastin only). (n=2)
(§2) Tritiated elastin was prepared with the modifications as described in Banda, M. J. and Werb, Z. (1981) Biochem J 193: 589-605 and Gordon, S., Werb, Z. and Cohn, Z. A. (1976) in In Vitro Methods in Cell Mediated and Tumor Immunity, eds. Bloom, B. R. and David, J. R. (Academic Press, New York), pages 349-350. 1 mg of skin or aortic elastin was diluted in 1 ml dH2O and pHed to 9.2. 1 mCi NaB3H4 (PerkinElmer, Waltham Mass.) and 2 mg of non-radioactive […] (Sigma, St. Louis, Mo.) was added. After 2 hours of incubation, the pH was adjusted to 3.0 and the elastin was incubated for an additional 30 minutes. The elastin was centrifuged for 3 minutes at 5000×g and the pellet was repeatedly washed to remove excess NaB3H4. […] The radioactivity of the soluble, cleaved elastin fragments in the supernatant was counted in Ready Safe Scintillation Fluid (Beckman-Coulter, Fullerton, Calif.). The radioactivity of the cleaved, soluble elastin fragments was 4.8 times and 2.7 times higher than background for skin and aortic elastin, respectively (FIG. 2).

aortic elastin = assay: 3H-elastin cleavage assay, aortic elastin; format: biochemical
Experimental: as §1, §2

[1] = 25 μg elastase, 2 hours, positive control
[2] = 0.15 mg 3H-elastin, granzyme B 0.75 μg added 5 times, room temperature, 7 days

elastase was tested, and the “radioactivity increase over background” value (skin elastin; [1]) was 14.9 fold and the “radioactivity increase over background” value (aortic elastin; [1]) was 7.7 fold.

With “granzyme B: serine protease that is capable of cleaving elastin and other extracellular proteins” the “radioactivity of the cleaved, soluble elastin fragments, higher than background” value (skin elastin; [2]) was 4.8 times and the “radioactivity of the cleaved, soluble elastin fragments, higher than background” value (aortic elastin; [2]) was 2.7 times.
